The results in this text go back to patent US20200289495A1, “METHODS OF INHIBITING ENDOTHELIN B RECEPTOR EXPRESSING TUMOR METASTASES” (ENB Therapeutics, Inc., priority 2020, published 2020).

Each structure is given as a SMILES string. Entries after “also recorded” stand apart in the source; their conditions may differ.

The test system of series [1] is melanoma cell lines overexpressing ETBR. Nature of the series: Mouse melanoma brain metastasis model (xenografts of ETBR-overexpressing melanoma cell lines). It counts as in vivo, mice. The settings on record: 60 mg/kg/day. As to the method: FIGS. 5A, 5B, 5C, 5D, and 5E. ETBR antagonist inhibits melanoma brain metastasis in mice. […] In this study, lentiviral vectors were used to overexpress ETBR in melanoma cell lines, which were in turn used to implant xenografts in mice.
A192621 inhibits melanoma brain metastasis in mice (FIGS. 5A, 5B, 5C, 5D, and 5E). […] A192621 was administered at a dose of 60 mg/kg/day using a mouse melanoma model. […] In this study, lentiviral vectors were used to overexpress ETBR in melanoma cell lines, which were in turn used to implant xenografts in mice. […]

Series [2] relates to A375 human melanoma cells. Nature of the series: A375 subcutaneous melanoma xenograft in Nu/J nude mice. It counts as in vivo. The settings on record: Dabrafenib 100 mg/Kg PO daily, alone or + BQ788 600 ng IP TIW; day 11, p<0.05. As to the method: FIG. 7. BQ788 synergizes with Dabrafenib in vivo. A375 human melanoma cells were implanted subcutaneously into the rear flank of Nu/J nude mice and allowed to grow to 150 mm3-200 mm3 prior to randomization and initiation of treatment. The mice received the following treatments: (1) vehicle (n=8), (2) Dabrafenib 100 mg/Kg PO daily (n=5), and (3) Dabrafenib+BQ788 600 ng IP TIW (n=5).
B0788 synergizes with a bRAF inhibitor in vivo (FIG. 7). A375 human melanoma cells (3×10^6) were implanted subcutaneously into the rear flank of Nu/J nude mice and allowed to grow to 150 mm3-200 mm3 prior to randomization and initiation of treatment. The treatment groups were as follows: (1) vehicle (n=8), Dabrafenib 100 mg/Kg PO daily (n=5), (2) Dabrafenib+BQ788 600 ng IP 3×per week (n=5).

Series [3] is described as follows: Body weight of athymic nude mice under intranasal BQ788. It counts as in vivo. As to the method:
FIG. 9. ETAR antagonist and Niacinamide mitigate weight loss from BQ788. Six week old athymic nude mice were administered the ETBR antagonist BQ788 intranasally in 20% DMSO at the indicated ascending doses over a period of 42 days. One group was additionally administered the ETAR antagonist Macitentan orally at a dose of 5 mg/kg daily. The drinking water of these mice was supplemented with the B vitamin niacinamide at a concentration of 0.3 mg/mL. […] Co-administration of the ETAR antagonist Macitentan with niacinamide supplementation mitigated this weight loss. […] Co-administration of ETAR antagonists and niacinamide with ETBR antagonists mitigated the adverse effects of ETBR antagonists when administered for therapeutic purposes.
ETAR antagonist and Niacinamide mitigate weight loss from B0788 (FIG. 9). Six week old athymic nude mice (n=3 per group) were administered the ETBR antagonist BQ788 intranasally in 20% DMSO at the indicated ascending doses over a period of 42 days. One group was additionally administered the ETAR antagonist Macitentan orally at a dose of 5 mg/kg daily. The drinking water of these mice was supplemented with the B vitamin niacinamide at a concentration of 0.3 mg/mL. […] Co-administration of the ETAR antagonist Macitentan with niacinamide supplementation mitigated this weight loss. […]

Series [4] concerns SKMEL28 human melanoma cells. Nature of the series: SKMEL28 human melanoma xenograft growth and lung metastasis in mice. It counts as in vivo. As to the method:
FIGS. 4A and 4B. BQ788 inhibits melanoma growth and metastasis.
B0788 inhibits melanoma growth and metastasis (FIGS. 4A and 4B). […] Mice were implanted with 1×10^6 SKMEL28 human melanoma cells. Tumors were established for 10 days until palpable then 120 ng ([…]) BQ788 dissolved in DMSO was injected IP 3×per week×6 weeks. Mice were then sacrificed and lungs harvested and tumors weighed. A 75% reduction in tumor weight was observed.
Background: In xenograft studies the graft and the host belong to different species.

`CCCOc1ccc([C@H]2[C@H](C(=O)O)[C@@H](c3ccc4c(c3)OCO4)CN2CC(=O)Nc2c(CC)cccc2CC)cc1` [A192621, (2R,3R,4S)-4-(1,3-benzodioxol-5-yl)-1-[2-(2,6-diethylanilino)-2-oxoethyl]-2-(4-propoxyphenyl)pyrrolidine-3-carboxylic acid]: in series [1], the CNS melanoma tumors result is reported as “shrinks CNS melanoma tumors”, the brain melanoma metastases entry is reported as “shrinks brain melanoma metastases” and the survival result is listed as “increases survival”.

Consider `CC(C)(C)c1nc(-c2cccc(NS(=O)(=O)c3c(F)cccc3F)c2F)c(-c2ccnc(N)n2)s1` [Dabrafenib], for which the tumor growth result in series [2] is “retarded the growth of tumors; also recorded: retarded tumor growth”.

As for `CCCC[C@@H](NC(=O)[C@@H](Cc1cn(C(=O)OC)c2ccccc12)NC(=O)[C@H](CC(C)(C)C)NC(=O)N1[C@H](C)CCC[C@@H]1C)C(=O)O` [BQ788], the “average weight loss relative to baseline body weight” value in series [3] (BQ788 intranasally in 20% DMSO, ascending doses over 42 days, end of study) worked out at 5%. Also, the “body weight / thriving” value in series [3] (BQ788 intranasally over 42 days, alone or with Macitentan 5 mg/kg daily orally and niacinamide 0.3 mg/mL in drinking water) is reported as “failed to thrive”. In series [4] (120 ng (˜60 ug/kg) BQ788 in DMSO IP 3× per week × 6 weeks, lungs vs control mice), the “clearance of lung metastases” value is over 95%. For the same molecule, the “apoptosis in melanoma tumor cells” value in series [4] (FIGS. 4A and 4B) was “induces apoptosis”.
